Test results as given in US20090275574A1, “NOVEL COMPOUNDS-300” (ASTRAZENECA AB, priority 2008, published 2009).

Assays:
[1] = target: T1, hM3 (human Muscarinic receptor subtype 3) (Homo sapiens, UniProt P20309); experiment: Human M3 calcium mobilization FLIPR assay; type: cell-based; conditions: hM3 expressed in CHO cells, intracellular Ca2+ release (FLIPR)
T1 construct: expressed in transfected cells; host or cells: CHO cells (ATCC)
Procedure: (§1) Human M1, rat M1, Human M3 and Human M5 Calcium Mobilization FLIPR™ Assay The compound activity in the present invention (EC50 or IC50) is measured using a 384 plate-based imaging assay that monitors drug induced intracellular Ca^2+ release in whole cells. Activation of hM1 (human Muscarinic receptor subtype 1, gene bank access NM_000738), rM1 (rat Muscarinic receptor subtype 1, gene bank access NM_080773), hM3 (human Muscarinic receptor subtype 3, gene bank access NM_000740NM_000740) and hM5 (human Muscarinic receptor subtype 5, gene bank access NM_0121258), receptors expressed in CHO cells (Chinese hamster ovary cells, ATCC) is quantified in a Molecular Devices FLIPR IITM instrument as an increase in fluorescent signal. Inhibition of hM3 and hM5 by compounds is determined by the decrease in fluorescent signal in response to 2 nM acetylcholine activation. […] Prior to experiment, the cell culture medium is removed from the plates by inversion. […] Plates are incubated at 37° C. for 60 minutes prior to start the experiment. The incubation is terminated by washing the cells four times in assay buffer, leaving a residual 25 μl buffer per well. Cell plates are then transferred to the FLIPR, ready for compound additions. The day of experiment, acetylcholine and compounds are diluted in assay buffer in three-fold concentration range (10 points serial dilution) for addition by FLIPR instrument. For all calcium assays, a baseline reading is taken for 10 seconds followed by the addition of 12.5 μl of compounds, resulting in a total well volume of 37.5 μl. Data is collected every second for 60 pictures and then every 6 seconds for 20 pictures prior to the addition of agonist. For hM3 and hM5, before agonist addition, a second baseline reading is taken for 10 seconds followed by the addition of 12.5 μl of agonist or buffer, producing a final volume of 50 μl. After agonist stimulation, the FLIPR continues to collect data every second for 60 pictures and then every 6 seconds for 20 pictures. The fluorescence emission is read using filter 1 (emission 510-570 nm) by the FLIPR on board CCD camera. Calcium mobilization output data are calculated as the maximal relative fluorescence unit (RFU) minus the minimal value for both compound and agonist reading frame (except for hM1 and rM1 using only the maximal RFU). Data are analyzed using sigmoidal fits of a non-linear curve-fitting program (XLfit version 4.2.2 Excel add-in version 4.2.2 build 18 math 1Q version 2.1.2 build 18). All pEC50 and pIC50 values are reported as arithmetic means±standard error of mean of ‘n’ independent experiments.

[2] = target: T2, hM5 (human Muscarinic receptor subtype 5) (Homo sapiens, UniProt P08912); experiment: Human M5 calcium mobilization FLIPR assay; type: cell-based; conditions: hM5 expressed in CHO cells, intracellular Ca2+ release (FLIPR)
T2 construct: expressed in transfected cells; host or cells: CHO cells (ATCC)
T2 sequence (P08912 1-532): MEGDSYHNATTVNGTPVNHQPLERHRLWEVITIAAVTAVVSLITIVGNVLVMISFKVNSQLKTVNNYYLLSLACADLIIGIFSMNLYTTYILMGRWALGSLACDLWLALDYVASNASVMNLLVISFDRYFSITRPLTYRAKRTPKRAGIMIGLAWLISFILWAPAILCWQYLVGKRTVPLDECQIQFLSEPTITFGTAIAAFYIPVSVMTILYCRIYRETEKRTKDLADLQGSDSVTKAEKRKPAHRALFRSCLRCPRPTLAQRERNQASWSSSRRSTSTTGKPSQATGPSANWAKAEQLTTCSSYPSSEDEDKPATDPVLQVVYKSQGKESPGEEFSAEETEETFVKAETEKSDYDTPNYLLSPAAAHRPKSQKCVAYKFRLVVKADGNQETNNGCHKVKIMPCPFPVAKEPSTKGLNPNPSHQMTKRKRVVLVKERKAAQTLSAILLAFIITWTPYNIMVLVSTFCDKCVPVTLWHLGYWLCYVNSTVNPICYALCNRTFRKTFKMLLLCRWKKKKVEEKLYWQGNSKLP
Procedure: as §1

T1 sequence (P20309 whole entry): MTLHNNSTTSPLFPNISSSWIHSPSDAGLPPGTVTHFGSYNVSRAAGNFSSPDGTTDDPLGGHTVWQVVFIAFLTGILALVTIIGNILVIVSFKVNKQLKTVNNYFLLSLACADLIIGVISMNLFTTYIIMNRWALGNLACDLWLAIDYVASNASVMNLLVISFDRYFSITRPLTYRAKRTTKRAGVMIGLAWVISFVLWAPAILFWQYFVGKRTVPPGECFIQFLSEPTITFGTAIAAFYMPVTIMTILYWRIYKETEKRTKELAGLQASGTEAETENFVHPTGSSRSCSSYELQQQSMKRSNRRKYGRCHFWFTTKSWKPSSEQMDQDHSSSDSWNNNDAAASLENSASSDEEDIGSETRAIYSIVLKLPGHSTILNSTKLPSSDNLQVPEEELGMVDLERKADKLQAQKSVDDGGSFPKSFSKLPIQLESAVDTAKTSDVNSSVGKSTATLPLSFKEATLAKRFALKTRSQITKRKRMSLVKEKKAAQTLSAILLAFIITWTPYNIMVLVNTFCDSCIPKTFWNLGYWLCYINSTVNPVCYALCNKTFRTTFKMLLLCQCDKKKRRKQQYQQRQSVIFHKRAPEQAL

Compound	EC50 [1] [µM]	EC50 [2] [µM]
O=C1CO[C@H]2CCCC[C@@H]2N1C1CCN(C2CCC(COCC(F)F)CC2)CC1 (single isomer, unassigned) [Example 27]	> 40	> 40
CC(C)OCC1CCC(N2CCC(N3C(=O)NC[C@H]4CCCC[C@@H]43)CC2)CC1 (single isomer, unassigned) [Example 04]	5.1	> 40
CC(C)OCC1CCC(N2CCC(N3C(=O)CO[C@H]4CCC(F)(F)C[C@@H]43)CC2)CC1 (single isomer, unassigned) [Example 37]	> 40	> 40
CCCOCC1CCC(N2CCC(N3C(=O)NC[C@H]4CCCC[C@@H]43)CC2)CC1 (single isomer, unassigned) [Example 02]	1.6	> 2.77
O=C1CO[C@H]2CCCC[C@@H]2N1C1CCN(C2CCC(COCCF)CC2)CC1 (single isomer, unassigned) [Example 25]	> 40	> 40
O=C1COC2CCCC2N1C1CCN([C@H]2CC[C@@H](COCC3CC3)CC2)CC1 (single isomer, unassigned) [Example 48]	> 40	> 40
CCOCC1CCC(N2CCC(N3C(=O)CO[C@H]4CCCC[C@@H]43)CC2)CC1 (single isomer, unassigned) [Example 13]	> 40	> 40
O=C1CO[C@H]2CCCC[C@@H]2N1C1CCN(C2CCC(COCCF)CC2)CC1 (single isomer, unassigned) [Example 24]	> 40	> 40
CCOC[C@@H]1CC[C@H](N2CCC(N3C(=O)CO[C@H]4CCCC[C@@H]43)CC2)C1 [Example 43, (4aS,8aS)-4-(1-((1S,3R)-3-(ethoxymethyl)cyclopentyl)piperidin-4-yl)hexahydro-2H-benzo[b][1,4]oxazin-3(4H)-one]	> 40	> 40
O=C1CO[C@H]2CCCC[C@@H]2N1C1CCN(C2CCC(COCC(F)F)CC2)CC1 (single isomer, unassigned) [Example 26]	> 40	> 40
CC(C)OCC1CCC(N2CCC(N3C(=O)CO[C@H]4CCCC[C@@H]43)CC2)CC1 (single isomer, unassigned) [Example 18]	> 40	> 40
CCOC[C@H]1CC[C@@H](N2CCC(N3C(=O)CO[C@H]4CCCC[C@@H]43)CC2)C1 [Example 42, (4aS,8aS)-4-(1-((1R,3S)-3-(ethoxymethyl)cyclopentyl)piperidin-4-yl)hexahydro-2H-benzo[b][1,4]oxazin-3(4H)-one]	> 2.1	> 4.22
CCOCC1CC(N2CCC(N3C(=O)CO[C@H]4CCCC[C@@H]43)CC2)C1 (single isomer, unassigned) [Example 39]	> 40	> 40
CCCOCC1CCC(N2CCC(N3C(=O)NC[C@H]4CCCC[C@@H]43)CC2)CC1 (single isomer, unassigned) [Example 01]	> 40	> 40
O=C1NC[C@H]2CCCC[C@@H]2N1C1CCN(C2CCC(COCC(F)F)CC2)CC1 (single isomer, unassigned) [Example 51]	> 40	> 15.7
CC(C)OCC1CCC(N2CCC(N3C(=O)CO[C@H]4CCC(F)(F)C[C@@H]43)CC2)CC1 (single isomer, unassigned) [Example 38]	> 40	> 40
CCOCC1CCC(N2CCC(N3C(=O)CO[C@H]4CCCC[C@@H]43)CC2)CC1 (single isomer, unassigned) [Example 14]	> 40	> 40
CC(C)OCC1CCC(N2CCC(N3C(=O)CO[C@H]4CCCC[C@@H]43)CC2)CC1 (mixture of isomers) [Example 15, (4aS,8aS)-4-(1-(4-(isopropoxymethyl)cyclohexyl)piperidin-4-yl)hexahydro-2H-benzo[b][1,4]oxazin-3(4H)-one]	> 40	> 40
CC(C)OCC1CCC(N2CCC(N3C(=O)CO[C@H]4CCCC[C@@H]43)CC2)CC1 (single isomer, unassigned) [Example 19]	> 40	> 40
CCOCC1CCC(N2CCC(N3C(=O)NC[C@H]4CCCC[C@@H]43)CC2)CC1 (mixture of isomers) [Example 08, (4aR,8aS)-1-(1-(4-(ethoxymethyl)cyclohexyl)piperidin-4-yl)octahydroquinazolin-2(1H)-one]	1.1	0.069
CCOCC1CCC(N2CCC(N3C(=O)CO[C@H]4CCCC[C@@H]43)CC2)C1 (single isomer, unassigned) [Example 45]	> 40	> 40
CCOCC1CCC(N2CCC(N3C(=O)CO[C@H]4CCCC[C@@H]43)CC2)C1 (single isomer, unassigned) [Example 44]	> 10	2.92
